Measured values published in PubChem BioAssay AID1963866 (Molecular Pharmacology Branch, DTP, NCI, 2024).

System: PDC KRAS tumor spheroids with HUVEC/MSC, viability
Assay: Anticancer human tumor 349418-098-R-PDC patient-derived lung adenocarcinoma cell line growth inhibition [KRAS2]
Details: for IC50: curve of first compound; for viability, T/C: stronger effect = lower value
Text: Multicellular complex tumor spheroid response to RAS pathway inhibitors in combination with a targeted agents in patient-derived cell lines with oncogenic KRAS variants from multiple cancer types
A high-throughput screen of multi-cell type tumor spheroids was designed to identify active combinations of targeted small molecules and KRAS pathway inhibitors. Complex spheroids include a stromal component modeled by human endothelial cells (HUVEC) and fibroblasts modeled by human mesenchymal stem cells (MSCs). The concentration ranges selected for each drug and investigational agent were based upon clinically achievable concentrations if the clinical Cmax of the agent was known.
Compounds. The drugs and investigational agents: BI-3406 (NSC825286), BAY-293 (NSC824723), batoprotafib (TNO155; NSC825523), sotorasib (AMG 510; NSC818433), MRTX1257 (NSC819558), elimusertib (BAY 1895344; NSC800525), molibresib (GSK525762; NSC774829), temuterkib (LY3214996; NSC803410), venetoclax (NSC766270), alisertib (NSC759677), olaparib (NSC753686), talazoparib (NSC767125), erdafitinib (NSC781556), ipatasertib (NSC767898), cabozantinib (NSC761068), nintedanib (NSC756659), abemaciclib (NSC768073), docetaxel (NSC628503), trametinib (NSC758246), and sapanisertib (NSC764658) were obtained from the National Cancer Institute (NCI) Developmental Therapeutics Program Chemical Repository. The FDA-approved anticancer drug set is available from the Developmental Therapeutics Program. […] The stock solutions were prepared in dimethyl sulfoxide (DMSO, Sigma-Aldrich, St. Louis, MO, cat. D2650) at 800-fold the tested concentration and stored at -70 degrees C prior to their use. All drugs and investigational agents were tested over a range starting from a high concentration at or near the clinical Cmax and decreasing in half-log increments. If the clinical Cmax for an agent had not been determined, the highest concentration tested was 10 microM.
Cell Culture. All cells were maintained in an incubator at 37 degrees C and 5% CO2 with 95% humidity. The PDC lines were cultured according to standard operating procedures established by the NCI PDMR (https://pdmr.cancer.gov/sops/default.htm). Briefly, all PDCs were thawed and cultured in Matrigel-coated flasks prepared with a working solution of 1X Ham's F-12 nutrient mix, without supplementation (Invitrogen, Waltham, MA, cat. 11765054), 100 U/mL penicillin-streptomycin (Invitrogen, cat. 15140122), and 2.5% Matrigel (Corning Inc., Corning, NY, cat. 354248) for the first three passages. All PDCs were cultured in complete DMEM/F-12 media containing advanced DMEM/F-12 (Invitrogen, cat. 12634028), 4.9% defined fetal bovine serum, heat inactivated (HyClone Laboratories Inc., Logan, UT, cat. SH30070.03HI), 389 ng/mL hydrocortisone (Sigma-Aldrich, cat. H4001), 9.7 ng/mL human EGF recombinant protein (Invitrogen, cat. PHG0313), 23.4 microg/mL adenine (Sigma-Aldrich, cat. A2786), 97.3 U/mL penicillin-streptomycin (Invitrogen, cat. 15140122), 1.9 mM L-glutamine (Invitrogen, cat. 25030081), and 9.7 microM Y-27632 dihydrochloride (Tocris Bioscience, Bristol, United Kingdom, cat. 1254). The PDCs were cultured in complete DMEM/F12 media without 9.7 microM Y-27632 dihydrochloride for at least two passages prior to the screen. The established cell line HOP-62 was cultured in RPMI 1640 medium, HEPES (Invitrogen, cat. 22400105) with 10% defined fetal bovine serum (HyClone Laboratories Inc., cat. SH30070.03) and 2 mM L-glutamine (Invitrogen, cat. 25030081). The pooled donor HUVEC were cultured in endothelial cell growth medium 2 (PromoCell, Heidelberg, Germany, cat. C-22011) and the hMSC were cultured in mesenchymal stem cell growth medium 2 (PromoCell, cat. C-28009). For all experiments, HUVEC and hMSC were used at passages </=5, while the malignant cell lines were used at passages </=15. […]

[1] = second compound 0.1 µM, first compound 0.01 µM
[2] = second compound 0.1 µM, first compound 0.0316 µM
[3] = second compound 0.1 µM, first compound 0.1 µM
[4] = second compound 0.1 µM, first compound 0.316 µM
[5] = second compound 0.1 µM, first compound 1 µM
[6] = second compound 0.1 µM, first compound 3.16 µM
[7] = second compound 0.316 µM, first compound 0.01 µM
[8] = second compound 0.316 µM, first compound 0.0316 µM
[9] = second compound 0.316 µM, first compound 0.1 µM
[10] = second compound 0.316 µM, first compound 0.316 µM
[11] = second compound 0.316 µM, first compound 1 µM
[12] = second compound 0.316 µM, first compound 3.16 µM
[13] = second compound 1 µM, first compound 0.01 µM
[14] = second compound 1 µM, first compound 0.0316 µM
[15] = second compound 1 µM, first compound 0.1 µM
[16] = second compound 1 µM, first compound 0.316 µM
[17] = second compound 1 µM, first compound 1 µM
[18] = second compound 1 µM, first compound 3.16 µM
[19] = second compound 3.16 µM, first compound 0.01 µM
[20] = second compound 3.16 µM, first compound 0.0316 µM
[21] = second compound 3.16 µM, first compound 0.1 µM
[22] = second compound 3.16 µM, first compound 0.316 µM
[23] = second compound 3.16 µM, first compound 1 µM
[24] = second compound 3.16 µM, first compound 3.16 µM
[25] = second compound 10 µM, first compound 0.0316 µM
[26] = second compound 10 µM, first compound 0.1 µM
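Note: spheroids exposed to compounds for seven days before readout.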

## CC(=O)OC12COC1CC(O)C1(C)C(=O)C(O)C3=C(C)C(OC(=O)C(O)C(NC(=O)OC(C)(C)C)c4ccccc4)CC(O)(C(OC(=O)c4ccccc4)C21)C3(C)C (stereo not drawn) + C=CC(=O)N1CCN(c2nc(OCC3CCCN3C)nc3c2CCN(c2cccc4cccc(C)c24)C3)CC1CC#N
Second compound 0.0316 µM
  IC50: < 10 nM
Second compound 0.1 µM
  IC50: < 10 nM
Second compound 0.316 µM
  IC50: < 10 nM
Second compound 1 µM
  IC50: < 10 nM
Second compound 3.16 µM
  IC50: < 10 nM
Second compound 0.0316 µM, first compound 0.01 µM
  viability, T/C: 12%
Second compound 0.0316 µM, first compound 0.0316 µM
  viability, T/C: 20%
Second compound 0.0316 µM, first compound 0.1 µM
  viability, T/C: 16.5%
Second compound 0.0316 µM, first compound 0.316 µM
  viability, T/C: 17.8%
Second compound 0.0316 µM, first compound 1 µM
  viability, T/C: 24.9%
Second compound 0.0316 µM, first compound 3.16 µM
  viability, T/C: 23.5%
[1]
  viability, T/C: 13.5%
[2]
  viability, T/C: 12%
[3]
  viability, T/C: 15.2%
[4]
  viability, T/C: 17.2%
[5]
  viability, T/C: 21.1%
[6]
  viability, T/C: 18%
[7]
  viability, T/C: 10.8%
[8]
  viability, T/C: 14.2%
[9]
  viability, T/C: 12.8%
[10]
  viability, T/C: 14.6%
[11]
  viability, T/C: 18.3%
[12]
  viability, T/C: 18%
[13]
  viability, T/C: 9.34%
[14]
  viability, T/C: 12.5%
[15]
  viability, T/C: 12.2%
[16]
  viability, T/C: 11.6%
[17]
  viability, T/C: 14.8%
[18]
  viability, T/C: 17.5%
[19]
  viability, T/C: 12.8%
[20]
  viability, T/C: 14.4%
[21]
  viability, T/C: 19.9%
[22]
  viability, T/C: 20%
[23]
  viability, T/C: 19.5%
[24]
  viability, T/C: 24.3%

## Cn1ncnc1[C@H]1c2n[nH]c(=O)c3cc(F)cc(c23)N[C@@H]1c1ccc(F)cc1 + C=CC(=O)N1CCN(c2nc(=O)n(-c3c(C)ccnc3C(C)C)c3nc(-c4c(O)cccc4F)c(F)cc23)C(C)C1
Second compound 0.1 µM
  IC50: > 100 nM
Second compound 0.316 µM
  IC50: > 100 nM
Second compound 1 µM
  IC50: > 100 nM
Second compound 3.16 µM
  IC50: > 100 nM
Second compound 10 µM
  IC50: < 0.316 nM
Second compound 0.1 µM, first compound 0.000316 µM
  viability, T/C: 101%
Second compound 0.1 µM, first compound 0.001 µM
  viability, T/C: 95.4%
Second compound 0.1 µM, first compound 0.00316 µM
  viability, T/C: 94.5%
[1]
  viability, T/C: 92.3%
[2]
  viability, T/C: 88.1%
[3]
  viability, T/C: 87%
Second compound 0.316 µM, first compound 0.000316 µM
  viability, T/C: 95.2%
Second compound 0.316 µM, first compound 0.001 µM
  viability, T/C: 88.4%
Second compound 0.316 µM, first compound 0.00316 µM
  viability, T/C: 86.8%
[7]
  viability, T/C: 87.6%
[8]
  viability, T/C: 83%
[9]
  viability, T/C: 75.7%
Second compound 1 µM, first compound 0.000316 µM
  viability, T/C: 81.1%
Second compound 1 µM, first compound 0.001 µM
  viability, T/C: 79.3%
Second compound 1 µM, first compound 0.00316 µM
  viability, T/C: 80.5%
[13]
  viability, T/C: 73.3%
[14]
  viability, T/C: 64.6%
[15]
  viability, T/C: 64.6%
Second compound 3.16 µM, first compound 0.000316 µM
  viability, T/C: 65.8%
Second compound 3.16 µM, first compound 0.001 µM
  viability, T/C: 66.6%
Second compound 3.16 µM, first compound 0.00316 µM
  viability, T/C: 58.1%
[19]
  viability, T/C: 60.9%
[20]
  viability, T/C: 61.1%
[21]
  viability, T/C: 56.3%
Second compound 10 µM, first compound 0.000316 µM
  viability, T/C: 39%
Second compound 10 µM, first compound 0.001 µM
  viability, T/C: 43.6%
Second compound 10 µM, first compound 0.00316 µM
  viability, T/C: 43.9%
Second compound 10 µM, first compound 0.01 µM
  viability, T/C: 29.1%
[25]
  viability, T/C: 34.3%
[26]
  viability, T/C: 30.5%

## CCN1CCN(Cc2ccc(Nc3ncc(F)c(-c4cc(F)c5nc(C)n(C(C)C)c5c4)n3)nc2)CC1
Compound 0.00316 µM
  viability, T/C: 60.9% [middle of 5 runs]
Compound 0.01 µM
  viability, T/C: 35.7% [middle of 5 runs]
Compound 0.0316 µM
  viability, T/C: 19.6% [middle of 5 runs]
Compound 0.1 µM
  viability, T/C: 16.7% [middle of 5 runs]
Compound 0.316 µM
  viability, T/C: 14.5% [middle of 5 runs]
Compound 1 µM
  viability, T/C: 5.13% [middle of 5 runs]

## CCNC(=O)CC1N=C(c2ccc(Cl)cc2)c2cc(OC)ccc2-n2c(C)nnc21 (stereo not drawn) + CC1OCC2(CCN(c3cnc(Sc4ccnc(N)c4Cl)c(N)n3)CC2)C1N
Second compound 0.1 µM
  IC50: 112 nM
Second compound 0.316 µM
  IC50: 133 nM
Second compound 1 µM
  IC50: 148 nM
Second compound 3.16 µM
  IC50: 183 nM
Second compound 10 µM
  IC50: 196 nM
[2]
  viability, T/C: 106%
[3]
  viability, T/C: 50.3%
[4]
  viability, T/C: 28.4%
[5]
  viability, T/C: 11.3%
[6]
  viability, T/C: 3.22%
Second compound 0.1 µM, first compound 10 µM
  viability, T/C: 1.09%
[8]
  viability, T/C: 103%
[9]
  viability, T/C: 58.8%
[10]
  viability, T/C: 23.6%
[11]
  viability, T/C: 10.1%
[12]
  viability, T/C: 2.91%
Second compound 0.316 µM, first compound 10 µM
  viability, T/C: 1.3%
[14]
  viability, T/C: 136%
[15]
  viability, T/C: 60.9%
[16]
  viability, T/C: 28.8%
[17]
  viability, T/C: 8.35%
[18]
  viability, T/C: 2.56%
Second compound 1 µM, first compound 10 µM
  viability, T/C: 1.67%
[20]
  viability, T/C: 103%
[21]
  viability, T/C: 73.9%
[22]
  viability, T/C: 27.6%
[23]
  viability, T/C: 10.3%
[24]
  viability, T/C: 2.56%
Second compound 3.16 µM, first compound 10 µM
  viability, T/C: 1.16%
[25]
  viability, T/C: 109%
[26]
  viability, T/C: 80%
Second compound 10 µM, first compound 0.316 µM
  viability, T/C: 28.3%
Second compound 10 µM, first compound 1 µM
  viability, T/C: 7.82%
Second compound 10 µM, first compound 3.16 µM
  viability, T/C: 2.1%
Second compound 10 µM, first compound 10 µM
  viability, T/C: 0.96%

## COC(=O)c1ccc2c(C(=Nc3ccc(N(C)C(=O)CN4CCN(C)CC4)cc3)c3ccccc3)c(O)[nH]c2c1
Compound 3.16 µM
  viability, T/C: 24.1% [middle of 5 runs]
Compound 10 µM
  viability, T/C: 16.1% [middle of 5 runs]
